Measurements reported in US20220160488A1, “FUNCTIONALIZED PROSTHETIC INTERFACES FOR THE PREVENTION AND TREATMENT OF DENTAL CONDITIONS” (OPTIMED TECHNOLOGY, INC., priority 2019, published 2022).

Tested on: candida cultures
Experiment: Heat-treated AmB placed on candida cultures, cleared zone
Assay type: cell-based, Candida albicans
Conditions: heat-treated at various temperatures, examined after 24 h; n=2
Protocol: FIG. 4 illustrates Candida albicans biomass assay: The antifungal properties of 3D printed PCL-PMMA was examined in a biomass assay a. To assess antifungal effects, 3D printed 1, 5 and 10 layered sample were incubated with C. albicans for 48 h and dry weight of their biofilm biomass was assessed. n=3, *p<0.05, T test. b. Electron microscopy of 1 (left), 5 (middle) and 10 (right) layered AmB containing PCL microspheres incorporated PMMA disc. c. AmB was heat-treated at various temperatures and placed on candida cultures and examined after 24 h for efficacy (left panel). Digital images were captured and the cleared zone was quantitated (right panel) n=2, *p<0.05, T test.

## C[C@@H]1[C@H](O)[C@@H](C)/C=C/C=C/C=C/C=C/C=C/C=C/C=C/[C@H](O[C@@H]2O[C@H](C)[C@@H](O)[C@H](N)[C@@H]2O)C[C@@H]2O[C@](O)(C[C@@H](O)C[C@@H](O)[C@H](O)CC[C@@H](O)C[C@@H](O)CC(=O)O[C@H]1C)C[C@H](O)[C@H]2C(=O)O [AmB, Amphotericin B]
  anti-fungal effects after direct heat treatment: reduced anti-fungal effects
